The values that follow come from patent US20220289668A1 (PHARMALEADS, priority 2019, published 2022).

Assay [1] has as its target T1, Neprilysin (NEP), purified from rabbit kidney (Oryctolagus cuniculus, UniProt P08049).
T1 construct: Neprilysin, purified from rabbit kidney; from tissue; host or cells: rabbit kidney
T1 sequence (P08049 1-750): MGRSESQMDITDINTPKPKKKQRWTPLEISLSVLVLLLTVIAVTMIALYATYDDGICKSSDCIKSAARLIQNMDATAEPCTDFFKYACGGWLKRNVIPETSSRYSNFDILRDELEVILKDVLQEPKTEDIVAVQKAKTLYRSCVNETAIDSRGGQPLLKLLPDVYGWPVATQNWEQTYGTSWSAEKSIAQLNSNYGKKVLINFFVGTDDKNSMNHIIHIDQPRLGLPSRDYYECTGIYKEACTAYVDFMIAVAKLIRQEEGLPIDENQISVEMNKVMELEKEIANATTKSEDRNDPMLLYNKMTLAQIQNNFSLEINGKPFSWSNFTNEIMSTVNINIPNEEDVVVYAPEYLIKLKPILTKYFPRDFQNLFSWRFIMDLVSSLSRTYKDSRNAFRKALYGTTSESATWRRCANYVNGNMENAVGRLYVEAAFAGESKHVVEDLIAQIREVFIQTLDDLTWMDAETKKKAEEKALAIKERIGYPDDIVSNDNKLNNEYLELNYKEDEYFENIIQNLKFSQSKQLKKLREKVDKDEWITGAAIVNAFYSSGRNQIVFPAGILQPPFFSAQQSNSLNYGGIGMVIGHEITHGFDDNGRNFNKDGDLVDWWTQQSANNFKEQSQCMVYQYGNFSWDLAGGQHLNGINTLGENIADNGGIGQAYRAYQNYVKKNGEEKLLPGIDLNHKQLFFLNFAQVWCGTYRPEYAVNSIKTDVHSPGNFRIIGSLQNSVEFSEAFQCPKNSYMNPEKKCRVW
Description: Neprilysin (NEP) assay, fluorigenic substrate Dansyl-Gly-(NO2)Phe-β-Ala. The class given is biochemical. The note with it: rabbit kidney NEP 200 ng/mL, substrate 20 μM, 50 mM Tris pH 7.4, 37° C.; read-out: NEP (nM), inhibitory power Ki. The method, then:
(§1) The claimed inhibitors were tested on different Zn^2+ peptidases representative of this family of enzymes, capable of inhibiting them, such as type 1 neprilysin (E.C.3.4.24.11, NEP-1), neutral aminopeptidase (E.C.3.4.11.2, APN) and LTA4H.
(§2) The assays are carried out on […] in the presence of fluorigenic substrates specific for each enzyme.
(§3) Generally speaking, the inhibitors are pre-incubated, in increasing concentrations, with the enzyme for 10 min, at 37° C. The substrate is then added and the mixture is incubated for 30 to 60 min at 37° C. The reaction is stopped at 4° C. and the reading of the fluorescence emitted is done by reading the Berthold Twinkle LS970B plate. An inhibition curve is then plotted as a function of the concentration of inhibitor using GraphPad software, then the Ki is determined from the Cheng Prusoff formula: Ki=IC50/(1+(S/Km)).
Neprilysin, purified from rabbit kidney (Aubry M et al. (1987), Biochem Cell Biol 65, 398-404), is used at final 200 ng/mL in 50 mM Tris buffer pH 7.4. The substrate, Dansyl-Gly-(NO2)Phe-β-Ala (Goudreau N et al. (1994), Anal Biochem, 219, 87-95) (Km=37 μM), is dissolved in ethanol and is used at final 20 μM. Increasing concentrations (from 10^−10 to 10^−3 M) of inhibitors are pre-incubated for 15 min at 37° C. with NEP in 50 mM Tris buffer, pH 7.4. The substrate is next added and the incubation is continued for 60 min. The reaction is stopped by placing the plate in ice for 10 min. The reading of the fluorescence emitted is carried out in a fluorimeter at λex=355 nm, λem=535 nm.

In assay [2] the target is T2, aminopeptidase N (APN), recombinant human enzyme (Homo sapiens, UniProt P15144).
T2 construct: purchased R&D System
Description: Neutral aminopeptidase (APN) assay, substrate L-Ala-β-NA. The format is biochemical. The note with it: APN-rh 50 ng/mL, substrate 50 μM, 50 mM Tris pH 7.4, 37° C.; read-out: APN (nM), inhibitory power Ki. As to the method: as §1, §2, §3
The measurement of the inhibition of aminopeptidase N (APN) is carried out by use of the substrate L-Ala↓β-NA (50 μM, Sigma Aldrich). The inhibitory powers are determined by using recombinant human enzyme (rh) (50 ng/mL; R&D System). Increasing concentrations (from 10^−10 to 10^−3 M) of inhibitors are pre-incubated for 30 min at 37° C. with APN-rh in 50 mM Tris buffer, pH 7.4. The substrate is next added and the incubation is continued for 30 min at 37° C. The reaction is stopped by placing the plate in ice for 10 min. The reading of the emitted fluorescence is measured in a fluorimeter at λex=340 nm, λem=405 nm.

Assay [3] addresses T3, LTA4H (Homo sapiens, UniProt P09960).
T3 sequence (P09960 1-611): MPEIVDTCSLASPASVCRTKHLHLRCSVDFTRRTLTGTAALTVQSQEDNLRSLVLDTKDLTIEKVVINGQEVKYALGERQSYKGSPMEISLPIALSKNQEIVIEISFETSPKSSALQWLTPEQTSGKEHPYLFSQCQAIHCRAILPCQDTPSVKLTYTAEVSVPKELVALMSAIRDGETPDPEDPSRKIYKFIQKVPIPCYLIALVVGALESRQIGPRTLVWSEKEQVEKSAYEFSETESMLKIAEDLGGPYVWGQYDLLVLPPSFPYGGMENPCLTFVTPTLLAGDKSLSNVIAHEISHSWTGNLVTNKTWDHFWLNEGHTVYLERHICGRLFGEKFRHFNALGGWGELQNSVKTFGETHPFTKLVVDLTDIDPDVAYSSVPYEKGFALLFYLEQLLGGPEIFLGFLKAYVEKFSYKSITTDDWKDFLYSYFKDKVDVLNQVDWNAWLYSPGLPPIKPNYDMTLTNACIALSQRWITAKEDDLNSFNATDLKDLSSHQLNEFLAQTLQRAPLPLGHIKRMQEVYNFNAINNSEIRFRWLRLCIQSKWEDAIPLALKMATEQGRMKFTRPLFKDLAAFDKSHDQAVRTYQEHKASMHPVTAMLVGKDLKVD
Kind of assay: LTA4 hydrolase assay, substrate (L)-Ala-β-naphthylamide. The class given is biochemical. The note with it: recombinant enzyme 0.6 μg/mL, substrate 1 mM, 50 mM Tris HCl pH 7.4, 100 mM NaCl, 37° C.; read-out: LTA4H (nM), inhibitory power Ki. As to the method: as §1, §2, §3
To determine the Ki values of the different inhibitors with regard to LTA4H, 0.6 μg/mL of recombinant enzyme were incubated beforehand for 30 minutes at 37° C. in 50 mM Tris HCl, pH 7.4, 100 mM NaCl, with increasing concentrations of inhibitor (from 10^−10 M to 10^−4 M of final concentration). The fluorescent substrate (L)-Ala-β-naphthylamide (1 mM) is added in a final volume of 100 μL and is incubated at 37° C. for 15 minutes. The fluorescence values are measured on a Berthold Twinkle LB 970 (λex=340 nm, λem=405 nm, energy of the lamp 10000). Samples containing 0% hydrolysis were obtained by adding the substrate to the buffer and samples having a relative activity of 100% were prepared without inhibitor. The percentage cleavage was evaluated and compared with a relative activity of 100%, and the IC50 values were determined as a consequence. The Ki values of the inhibitors (average of at least three double independent assays) were calculated using the equation Ki=IC50/(1+[S]/Km).

For assay [4], the system named is male OF1 mice. Kind of assay: Hot plate test on mice, intravenous administration. The note with it: for analgesic response: mice. The format is in vivo. (In general: Hot-plate and tail-flick tests time the reaction to a heat stimulus.)

T2 sequence (P15144 whole entry): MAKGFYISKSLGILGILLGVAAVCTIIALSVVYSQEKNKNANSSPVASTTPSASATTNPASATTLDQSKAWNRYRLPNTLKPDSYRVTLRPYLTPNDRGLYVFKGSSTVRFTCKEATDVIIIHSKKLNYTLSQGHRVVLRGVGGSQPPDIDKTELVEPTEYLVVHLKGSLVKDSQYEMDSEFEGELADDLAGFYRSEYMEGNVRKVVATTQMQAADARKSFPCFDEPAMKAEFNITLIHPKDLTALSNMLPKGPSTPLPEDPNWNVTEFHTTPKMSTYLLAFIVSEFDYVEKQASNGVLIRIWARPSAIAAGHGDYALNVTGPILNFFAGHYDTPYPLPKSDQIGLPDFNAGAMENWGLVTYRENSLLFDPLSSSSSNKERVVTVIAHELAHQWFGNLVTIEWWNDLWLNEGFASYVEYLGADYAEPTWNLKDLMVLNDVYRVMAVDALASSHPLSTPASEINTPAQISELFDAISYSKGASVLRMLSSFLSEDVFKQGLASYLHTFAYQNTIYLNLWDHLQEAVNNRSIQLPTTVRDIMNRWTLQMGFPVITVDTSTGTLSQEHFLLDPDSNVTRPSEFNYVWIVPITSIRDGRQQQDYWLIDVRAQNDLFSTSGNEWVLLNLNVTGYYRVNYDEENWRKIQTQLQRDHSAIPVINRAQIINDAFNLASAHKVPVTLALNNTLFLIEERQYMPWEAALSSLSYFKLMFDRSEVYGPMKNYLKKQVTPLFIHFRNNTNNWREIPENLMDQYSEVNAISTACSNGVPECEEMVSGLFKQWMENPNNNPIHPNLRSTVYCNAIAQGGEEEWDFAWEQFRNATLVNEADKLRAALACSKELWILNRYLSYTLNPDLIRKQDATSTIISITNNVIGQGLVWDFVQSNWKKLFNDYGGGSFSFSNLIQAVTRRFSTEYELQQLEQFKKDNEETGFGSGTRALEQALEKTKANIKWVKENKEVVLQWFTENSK

With `C[C@H](NC(=O)[C@H](Cc1ccc(-c2ccccc2)cc1)CN(O)C=O)C(=O)O`, the figures for the Ki in assay [1], in assay [2] and in assay [3] were 0.08 ± 0.01 nM, 86 ± 8 nM and 6.1 ± 0.7 nM, respectively.

Regarding `C[C@H](NC(=O)[C@@H](Cc1ccc(-c2ccccc2)cc1)CN(O)C=O)C(=O)O`, the inhibitory constant (Ki) in assay [1] was 44.1 ± 2.2 nM; in assay [2], 817 ± 80 nM; in assay [3] it was more than 10000 nM.

On to `C[C@H](NC(=O)[C@H](Cc1ccccc1)CN(O)C=O)C(=O)O` [Ia-1, (S)-2-((R)-2-benzyl-3-(N-hydroxyformamido)propanamido) propanoic Acid], for which the results for the Ki in assay [1], in assay [2] and in assay [3] were 3.3 ± 0.7 nM, 143 ± 9 nM and 7.5 ± 0.4 nM, respectively.

For `C[C@H](NC(=O)[C@@H](Cc1ccccc1)CN(O)C=O)C(=O)O` [Ia-2, (S)-2-((S)-2-benzyl-3-(N-hydroxyformamido)propanamido) propanoic Acid], the Ki in assay [1] is 17.7 ± 0.9 nM; in assay [2], more than 10000 nM.

`O=CN(O)C[C@@H](Cc1ccccc1)C(=O)N[C@@H](Cc1ccccc1)C(=O)O` [Ib-1, (S)-2-((R)-2-benzyl-3-(N-hydroxyformamido)propanamido)-3-phenylpropanoic Acid]: the Ki in assay [1] turned out to be 0.5 ± 0.1 nM; in assay [2], 24 ± 0.4 nM; in assay [3], 26 ± 2 nM. In addition, the analgesic response in assay [4] (Ib-1 10 mg/kg in association with THC 0.375 mg/kg, intravenous coadministration) came out at 65%; in assay [4] (compound Ib-1 alone, 10 mg/kg intravenous, vehicle EtOH/Tween 80/Water (1/1/8)), 10%. The “analgesic effect of the association (in words)” value in assay [4] (intravenous association of THC and Ib-1 at inactive doses, 10 min after injection, male OF1 mice) was “considerable synergic analgesic effect”.

On to `O=CN(O)C[C@H](Cc1ccccc1)C(=O)N[C@@H](Cc1ccccc1)C(=O)O` [Ib-2, (S)-2-((S)-2-benzyl-3-(N-hydroxyformamido)propanamido)-3-phenylpropanoic Acid], for which the Ki in assay [1] is 23.1 ± 1.1 nM; in assay [2], more than 10000 nM.

Take `O=CN(O)C[C@@H](Cc1ccccc1)C(=O)N[C@H](CC(=O)O)Cc1ccccc1` [Ic-1, (S)-3-((R)-2-benzyl-3-(N-hydroxyformamido)propanamido)-4-phenyl butanoic Acid]: the Ki in assay [1] turned out to be 6.3 ± 0.3 nM; in assay [2], 12 ± 1.7 nM; in assay [3], 443 ± 75 nM.

Consider `CCCCCc1cc(O)c2c(c1)OC(C)(C)[C@@H]1CCC(C)=C[C@@H]21` [THC, reference compound], for which, in assay [4] (THC alone, 0.375 mg/kg intravenous), the analgesic response was 12%.

As usually defined, the Ki is a measure of affinity in units of concentration, obtained from inhibition or displacement.
